Measurements taken from PubChem BioAssay (NCI).
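Values below derive from 48-hour exposures of cells grown in 96-well plates, with endpoints linearly interpolated between the two concentrations bracketing the appropriate inhibition level. GI50: concentration for 50% inhibition of growth. TGI: concentration producing complete growth inhibition.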

Experiments:
Assay in all cases: inhibition of tumour cell growth, NCI panel, 48 h
[1] = test system: 786-0 renal
[2] = test system: A549 NSCLC
[3] = test system: ACHN renal
[4] = test system: BT-549 breast
[5] = test system: CAKI-1 renal
[6] = test system: CCRF-CEM leukemia
[7] = test system: COLO 205 colon
[8] = test system: DU-145 prostate
[9] = test system: HCC-2998 colon
[10] = test system: HCT-116 colon
[11] = test system: HCT-15 colon
[12] = test system: HOP-62 NSCLC
[13] = test system: HS 578T breast
[14] = test system: HT29 colon
[15] = test system: IGROV1 ovarian
[16] = test system: KM12 colon
[17] = test system: M14 melanoma
[18] = test system: MALME-3M melanoma
[19] = test system: MCF7 breast
[20] = test system: MDA-MB-231 breast
[21] = test system: MDA-MB-435
[22] = test system: NCI-H226 lung
[23] = test system: NCI-H23 lung
[24] = test system: NCI-H460 lung
[25] = test system: NCI-H522 lung
[26] = test system: NCI/ADR-RES ovarian
[27] = test system: OVCAR-3 ovarian
[28] = test system: OVCAR-4 ovarian
[29] = test system: OVCAR-5 ovarian
[30] = test system: OVCAR-8 ovarian
[31] = test system: PC-3 prostate
[32] = test system: RPMI-8226 leukemia
[33] = test system: RXF 393 renal
[34] = test system: SK-MEL-28 melanoma
[35] = test system: SK-MEL-5 melanoma
[36] = test system: SK-OV-3 ovarian
[37] = test system: SN12C renal
[38] = test system: SW-620 colon
[39] = test system: T-47D breast
[40] = test system: TK-10 renal
[41] = test system: UACC-257 melanoma
[42] = test system: UACC-62 melanoma
[43] = test system: UO-31 renal
[44] = test system: A498 renal
[45] = test system: EKVX NSCLC
[46] = test system: HL-60(TB) leukemia
[47] = test system: HOP-92 NSCLC
[48] = test system: K-562 leukemia
[49] = test system: LOX IMVI melanoma
[50] = test system: MOLT-4 leukemia
[51] = test system: SF-268 CNS
[52] = test system: SF-295 CNS
[53] = test system: SF-539 CNS
[54] = test system: SK-MEL-2 melanoma
[55] = test system: SNB-19 CNS
[56] = test system: U251 CNS

## O=C(O)c1cn(C2CC2)c2cc(N3CCNCC3)c(F)cc2c1=O
[1]
  GI50: > 100 µM
  TGI: > 100 µM
[2]
  GI50: > 100 µM
  TGI: > 100 µM
[3]
  GI50: > 100 µM
  TGI: > 100 µM
[4]
  GI50: > 100 µM
  TGI: > 100 µM
[5]
  GI50: > 100 µM
  TGI: > 100 µM
[6]
  GI50: > 100 µM
  TGI: > 100 µM
[7]
  GI50: > 100 µM
  TGI: > 100 µM
[8]
  GI50: > 100 µM
  TGI: > 100 µM
[9]
  GI50: 98 µM
  TGI: > 100 µM
[10]
  GI50: > 100 µM
  TGI: > 100 µM
[11]
  GI50: > 100 µM
  TGI: > 100 µM
[12]
  GI50: > 100 µM
  TGI: > 100 µM
[13]
  GI50: 42.3 µM
  TGI: > 100 µM
[14]
  GI50: > 100 µM
  TGI: > 100 µM
[15]
  GI50: > 100 µM
  TGI: > 100 µM
[16]
  GI50: > 100 µM
  TGI: > 100 µM
[17]
  GI50: > 100 µM
  TGI: > 100 µM
[18]
  GI50: 74.6 µM
  TGI: > 100 µM
[19]
  GI50: > 100 µM
  TGI: > 100 µM
[20]
  GI50: > 100 µM
  TGI: > 100 µM
[21]
  GI50: > 100 µM
  TGI: > 100 µM
[22]
  GI50: > 100 µM
  TGI: > 100 µM
[23]
  GI50: > 100 µM
  TGI: > 100 µM
[24]
  GI50: > 100 µM
  TGI: > 100 µM
[25]
  GI50: > 100 µM
  TGI: > 100 µM
[26]
  GI50: > 100 µM
  TGI: > 100 µM
[27]
  GI50: > 100 µM
  TGI: > 100 µM
[28]
  GI50: > 100 µM
  TGI: > 100 µM
[29]
  GI50: > 100 µM
  TGI: > 100 µM
[30]
  GI50: > 100 µM
  TGI: > 100 µM
[31]
  GI50: > 100 µM
  TGI: > 100 µM
[32]
  GI50: > 100 µM
  TGI: > 100 µM
[33]
  GI50: > 100 µM
  TGI: > 100 µM
[34]
  GI50: > 100 µM
  TGI: > 100 µM
[35]
  GI50: > 100 µM
  TGI: > 100 µM
[36]
  GI50: > 100 µM
  TGI: > 100 µM
[37]
  GI50: > 100 µM
  TGI: > 100 µM
[38]
  GI50: > 100 µM
  TGI: > 100 µM
[39]
  GI50: 70 µM
  TGI: > 100 µM
[40]
  GI50: > 100 µM
  TGI: > 100 µM
[41]
  GI50: > 100 µM
  TGI: > 100 µM
[42]
  GI50: > 100 µM
  TGI: > 100 µM
[43]
  GI50: > 100 µM
  TGI: > 100 µM

## COc1ccc2c(c1)C(=O)c1c-2c(N2CCN(C(=O)CNCCN(C)C)CC2)nc2ccccc12
[1]
  GI50: 1.48 µM
  TGI: 3.09 µM
[44]
  GI50: 2.14 µM
  TGI: 5 µM
[2]
  GI50: 2.22 µM
  TGI: 10.1 µM
[3]
  GI50: 4.65 µM
  TGI: 17.4 µM
[4]
  GI50: 1.75 µM
  TGI: 3.43 µM
[5]
  GI50: 3.86 µM
  TGI: 17.6 µM
[6]
  GI50: 1.39 µM
  TGI: 4.5 µM
[7]
  GI50: 1.65 µM
  TGI: 3.2 µM
[8]
  GI50: 3.32 µM
  TGI: 13.3 µM
[45]
  GI50: 3.87 µM
  TGI: 15.7 µM
[9]
  GI50: 1.37 µM
  TGI: 2.98 µM
[10]
  GI50: 1.22 µM
  TGI: 2.7 µM
[11]
  GI50: 2.3 µM
  TGI: 5.44 µM
[46]
  GI50: 2.4 µM
  TGI: 6.31 µM
[12]
  GI50: 1.86 µM
  TGI: 4.18 µM
[47]
  GI50: 1.57 µM
  TGI: 4.15 µM
[13]
  GI50: 2.67 µM
  TGI: 9.87 µM
[14]
  GI50: 0.362 µM
  TGI: 1.25 µM
[15]
  GI50: 1.11 µM
  TGI: 2.69 µM
[48]
  GI50: 0.72 µM
  TGI: > 100 µM
[16]
  GI50: 1.83 µM
  TGI: 4.38 µM
[49]
  GI50: 1.71 µM
  TGI: 3.33 µM
[17]
  GI50: 1.88 µM
  TGI: 3.52 µM
[18]
  GI50: 1.96 µM
  TGI: 4.94 µM
[19]
  GI50: 1.62 µM
  TGI: 3.11 µM
[20]
  GI50: 1.79 µM
  TGI: 3.61 µM
[21]
  GI50: 2.38 µM
  TGI: 4.98 µM
[50]
  GI50: 1.47 µM
  TGI: 5.98 µM
[22]
  GI50: 4.11 µM
  TGI: 18 µM
[24]
  GI50: 1.17 µM
  TGI: 2.55 µM
[25]
  GI50: 1.76 µM
  TGI: 3.44 µM
[26]
  GI50: 4.28 µM
  TGI: 19.9 µM
[27]
  GI50: 2.01 µM
  TGI: 5.76 µM
[28]
  GI50: 5.62 µM
  TGI: 16.7 µM
[29]
  GI50: 2.2 µM
  TGI: 5.82 µM
[30]
  GI50: 3.9 µM
  TGI: 17.5 µM
[31]
  GI50: 3.48 µM
  TGI: 15.1 µM
[32]
  GI50: 1.67 µM
  TGI: 3.84 µM
[51]
  GI50: 2.28 µM
  TGI: 6 µM
[52]
  GI50: 2.48 µM
  TGI: 5.34 µM
[53]
  GI50: 1.6 µM
  TGI: 3.03 µM
[54]
  GI50: 2.07 µM
  TGI: 3.83 µM
[34]
  GI50: 1.67 µM
  TGI: 3.04 µM
[35]
  GI50: 4.49 µM
  TGI: 16.7 µM
[36]
  GI50: 14 µM
  TGI: 27.5 µM
[37]
  GI50: 2.54 µM
  TGI: 7.56 µM
[55]
  GI50: 4.99 µM
  TGI: 19.8 µM
[38]
  GI50: 1.27 µM
  TGI: 2.53 µM
[39]
  GI50: 1.38 µM
  TGI: 3.07 µM
[40]
  GI50: 4.15 µM
  TGI: 17.8 µM
[56]
  GI50: 2.19 µM
  TGI: 4.68 µM
[41]
  GI50: 1.95 µM
  TGI: 3.7 µM
[42]
  GI50: 2.16 µM
  TGI: 3.69 µM
[43]
  GI50: 1.38 µM
  TGI: 2.78 µM
